According to patent US9597407B2, “Targeted antimicrobial moieties” (C3 Jian, Inc., priority 2009, dated 2017):
Entries after “also recorded” stand apart in the source; their conditions may differ.

Test system: bacteria
Assay: Binding of targeting peptides to microorganisms (Table 3)
Details: preferably 1x PBS
[1] = microorganism bound by the targeting peptide, binding in aqueous buffers chosen by peptide solubility
[2] = peptide binding in aqueous buffers varied by peptide solubility
[3] = peptide binding in aqueous buffers that varied depending on peptide solubility
[4] = microorganism the targeting peptide binds, binding in aqueous buffers that varied with peptide solubility

PF-151 (EEYPARVPLSGEDVTEARRH; Peptide with targeting and/or antimicrobial activity)
Target(s) [1]: S. epidermidis and MRSA and E. faecalis and C. jeikeium

1T-19 (PGAFRNPQMPRG; Peptide with targeting and/or antimicrobial activity) [Peptide 1T-19]
Target(s) (microorganism bound by the targeting peptide) [2]: S. aureus; also recorded: S. epidermidis; also recorded: P. aeruginosa

PF-146 (GCGKRRIITKSASRDTR; Peptide with targeting and/or antimicrobial activity)
Target(s) [1]: S. epidermidis and M. luteus and P. aeruginosa and C. albicans and MRSA and C. jeikeium

1T-96 (VAGACAQPFGGQ; Peptide with targeting and/or antimicrobial activity) [Peptide 1T-96]
Target(s) (microorganism bound by the targeting peptide) [2]: S. gordonii; also recorded: S. mitis; also recorded: S. mutans; also recorded: S. oralis; also recorded: S. sanguinis

1T-57 (RLEYRRLETQVEENPESGRRPMRG; Peptide with targeting and/or antimicrobial activity) [Peptide 1T-57]
Target(s) (microorganism bound by the targeting peptide) [2]: P. aeruginosa

PF-C003 (FCSVDHDVITIAADHVKQGAEA; Peptide with targeting and/or antimicrobial activity)
Target(s) (microorganism bound by the targeting peptide) [3]: A. naeslundii; also recorded: P. gingivalis; also recorded: S. mutans

1T-154 (YFSFLEIVGMARR; Peptide with targeting and/or antimicrobial activity) [Peptide 1T-154]
Target(s) (microorganism bound by the targeting peptide) [2]: P. gingivalis

PF-703 (MTTVDNIVGLVIAVALMAFLFAALLFPEKF; Peptide with targeting and/or antimicrobial activity)
Target(s) (microorganism bound by the targeting peptide) [3]: Mycobacteria spp

PF-S024 (SKRGRKRKDRRKKKANHGKRPNS; Peptide with targeting and/or antimicrobial activity)
Target(s) [4]: Corynebacteria

PF-154 (GIKKSKHPSTDDYVVKTTIDSL; Peptide with targeting and/or antimicrobial activity)
Target(s) [1]: S. mutans

PF-285 (VPAKLLRVIDEIPE; Peptide with targeting and/or antimicrobial activity)
Target(s) [1]: S. mutans

1T-123 (LVRRNAVAGRSDGLAGAEQLDLVRLQGVL; Peptide with targeting and/or antimicrobial activity) [Peptide 1T-123]
Target(s) (microorganism bound by the targeting peptide) [2]: S. gordonii

1T-73 (GWWEELLHETILSKFKITKALELPIQL; Peptide with targeting and/or antimicrobial activity) [Peptide 1T-73]
Target(s) (microorganism bound by the targeting peptide) [2]: S. pneumoniae

1T-170 (AYGKVFSMDIMLSENDKLIVLRISHHSAWH; Peptide with targeting and/or antimicrobial activity) [Peptide 1T-170]
Target(s) (microorganism bound by the targeting peptide) [2]: P. gingivalis

1T-55 (NHKTLKEWKAKWGPEAVESWATLLG; Peptide with targeting and/or antimicrobial activity) [Peptide 1T-55]
Target(s) (microorganism bound by the targeting peptide) [2]: C. xerosis; also recorded: P. aeruginosa

1T-86 (HRKNPVLGVGRRHRAHNVA; Peptide with targeting and/or antimicrobial activity) [Peptide 1T-86]
Target(s) (microorganism bound by the targeting peptide) [2]: S. mitis; also recorded: S. oralis; also recorded: S. salivarious

PF-237 (YVKPKVGVHE; Peptide with targeting and/or antimicrobial activity)
Target(s) [1]: S. epidermidis

1T-268 (PITPKKEKCGLGTYAPKNPVFSKSRV; Peptide with targeting and/or antimicrobial activity) [Peptide 1T-268]
Target(s) [4]: F. nucleatum; also recorded: S. mutans; also recorded: S. oralis; also recorded: S. sanguinis

PF-018 (YYKTYFKEV; Peptide with targeting and/or antimicrobial activity)
Target(s) [4]: E. coli; also recorded: C. jeikeium

PF-158 (VRLESRPADLPE; Peptide with targeting and/or antimicrobial activity)
Target(s) [1]: S. epidermidis

PF-244 (HMRTISYLLAFAKFSLFIPPKQSLKRL; Peptide with targeting and/or antimicrobial activity)
Target(s) [1]: S. epidermidis; also recorded: M. luteus; also recorded: P. aeruginosa; also recorded: A. baumannii

PF-787 (MTERQRRALLKQHPEVVSWSDYLEKRKRRTGTAG; Peptide with targeting and/or antimicrobial activity)
Target(s) (microorganism bound by the targeting peptide) [3]: Mycobacteria spp.

PF-S007 (VVAGVVLLTALAVGSKRKEKKQIKEIQRLLAATR; Peptide with targeting and/or antimicrobial activity)
Target(s) (microorganism bound by the targeting peptide) [3]: S. epidermidis and MRSA

PF-492 (IQIDAASFYSISKSTIK; Peptide with targeting and/or antimicrobial activity)
Target(s) (microorganisms bound by the targeting peptide) [3]: S. mutans; also recorded: B. subtilis; also recorded: E. coli

1T-261 (SFEKNKIENNLKIAQAYIYIKPKPRICQA; Peptide with targeting and/or antimicrobial activity) [Peptide 1T-261]
Target(s) [4]: F. nucleatum; also recorded: S. mutans; also recorded: S. oralis; also recorded: S. sanguinis

1T-11 (RISE; Peptide with targeting and/or antimicrobial activity) [Peptide 1T-11]
Target(s) (microorganism bound by the targeting peptide) [2]: S. mutans; also recorded: S. epidermidis; also recorded: P. aeruginosa

PF-320 (DSGYYALLENKEERVVWDGEVVANNIFNNLWIVVNKVKTG; Peptide with targeting and/or antimicrobial activity)
Target(s) [1]: S. mutans; also recorded: E. coli

PF-503 (VVTLKDIVAVIEDQGYDVQ; Peptide with targeting and/or antimicrobial activity)
Target(s) (microorganisms bound by the targeting peptide) [3]: S. mutans

PF-340 (VKDVLLELFNKIIGA; Peptide with targeting and/or antimicrobial activity)
Target(s) [1]: S. mutans; also recorded: E. coli

1T-9 (WAWAESPRCVSTRSNIHALAFRVEVAALT; Peptide with targeting and/or antimicrobial activity) [Peptide 1T-9]
Target(s) (microorganism bound by the targeting peptide) [2]: M. xanthus

PF-317 (LILVSDI; Peptide with targeting and/or antimicrobial activity)
Target(s) [1]: S. mutans

PF-767 (DGKQGEPVALKPTDN; Peptide with targeting and/or antimicrobial activity)
Target(s) (microorganism bound by the targeting peptide) [3]: S. epidermidis and M. luteus and E. coli and MRSA and S. pneumoniae and E. faecalis and C. jeikeium

1T-126 (QGLARPVLRRIPL; Peptide with targeting and/or antimicrobial activity) [Peptide 1T-126]
Target(s) (microorganism bound by the targeting peptide) [2]: S. gordonii; also recorded: S. mitis; also recorded: S. mutans

PF-496 (EVTKRLVALAQQQLRG; Peptide with targeting and/or antimicrobial activity)
Target(s) (microorganisms bound by the targeting peptide) [3]: S. mutans; also recorded: E. coli

PF-779 (IYGDFFNFYLCDISLKVNGLQPGGPVRTVKLFGQPTGRCTPQ; Peptide with targeting and/or antimicrobial activity)
Target(s) (microorganism bound by the targeting peptide) [3]: Mycobacteria spp.

PF-197 (CNALLRRGHPPSAL; Peptide with targeting and/or antimicrobial activity)
Target(s) [1]: S. epidermidis; also recorded: M. luteus; also recorded: C. albicans; also recorded: E. faecalis; also recorded: C. jejuni

PF-494 (FTEPLRPLQAKGQIISIKPSTSSS; Peptide with targeting and/or antimicrobial activity)
Target(s) (microorganisms bound by the targeting peptide) [3]: S. mutans

PF-388 (ITPLLDEIGKVCIDKISK; Peptide with targeting and/or antimicrobial activity)
Target(s) (microorganisms bound by the targeting peptide) [3]: E. faecalis; also recorded: C. jeikeium; also recorded: C. jejuni

PF-489 (KVDRVSTTITEKIK; Peptide with targeting and/or antimicrobial activity)
Target(s) (microorganisms bound by the targeting peptide) [3]: S. mutans

1T-109 (VTTNVRQGAGS; Peptide with targeting and/or antimicrobial activity) [Peptide 1T-109]
Target(s) (microorganism bound by the targeting peptide) [2]: A. naeslundii; also recorded: S. epidermidis; also recorded: S. gordonii; also recorded: S. mitis; also recorded: S. mutans; also recorded: S. oralis; also recorded: S. salivarious; also recorded: S. sanguinis

PF-706 (LGYGAWIGCGLGLNGFHRID; Peptide with targeting and/or antimicrobial activity)
Target(s) (microorganism bound by the targeting peptide) [3]: L. pneumophila

PF-248 (ILSKLWFWMINSLGVVLLVSYWLLAKWGVA; Peptide with targeting and/or antimicrobial activity)
Target(s) [1]: S. mutans; also recorded: S. epidermidis; also recorded: M. luteus; also recorded: E. coli; also recorded: P. aeruginosa; also recorded: A. baumannii

PF-717 (PQSEVTFENIYAPKANGGGLYGI; Peptide with targeting and/or antimicrobial activity)
Target(s) (microorganism bound by the targeting peptide) [3]: E. coli

PF-207 (AAGCRDLGSLSSLVTNPS; Peptide with targeting and/or antimicrobial activity)
Target(s) [1]: M. luteus; also recorded: C. jeikeium

PF-282 (QNNDTSAWCGSAHKNGNS; Peptide with targeting and/or antimicrobial activity)
Target(s) [1]: S. mutans

PF-104 (ERTAVNDLWI; Peptide with targeting and/or antimicrobial activity)
Target(s) [1]: MRSA and C. jeikeium

PF-402 (FIDVLKSKINEFLN; Peptide with targeting and/or antimicrobial activity)
Target(s) (microorganisms bound by the targeting peptide) [3]: S. epidermidis; also recorded: P. aeruginosa; also recorded: E. faecalis; also recorded: C. jejuni

PF-193 (PPHCPPGHAKKGWC; Peptide with targeting and/or antimicrobial activity)
Target(s) [1]: S. epidermidis and M. luteus and E. coli and MRSA and E. faecalis and C. jejuni
